From EP4692094A1 (Beijing Konruns Pharmaceutical Co., Ltd., priority 2023, dated 2024) come the findings set out here.

T1 sequence (Q8WYB5 whole entry): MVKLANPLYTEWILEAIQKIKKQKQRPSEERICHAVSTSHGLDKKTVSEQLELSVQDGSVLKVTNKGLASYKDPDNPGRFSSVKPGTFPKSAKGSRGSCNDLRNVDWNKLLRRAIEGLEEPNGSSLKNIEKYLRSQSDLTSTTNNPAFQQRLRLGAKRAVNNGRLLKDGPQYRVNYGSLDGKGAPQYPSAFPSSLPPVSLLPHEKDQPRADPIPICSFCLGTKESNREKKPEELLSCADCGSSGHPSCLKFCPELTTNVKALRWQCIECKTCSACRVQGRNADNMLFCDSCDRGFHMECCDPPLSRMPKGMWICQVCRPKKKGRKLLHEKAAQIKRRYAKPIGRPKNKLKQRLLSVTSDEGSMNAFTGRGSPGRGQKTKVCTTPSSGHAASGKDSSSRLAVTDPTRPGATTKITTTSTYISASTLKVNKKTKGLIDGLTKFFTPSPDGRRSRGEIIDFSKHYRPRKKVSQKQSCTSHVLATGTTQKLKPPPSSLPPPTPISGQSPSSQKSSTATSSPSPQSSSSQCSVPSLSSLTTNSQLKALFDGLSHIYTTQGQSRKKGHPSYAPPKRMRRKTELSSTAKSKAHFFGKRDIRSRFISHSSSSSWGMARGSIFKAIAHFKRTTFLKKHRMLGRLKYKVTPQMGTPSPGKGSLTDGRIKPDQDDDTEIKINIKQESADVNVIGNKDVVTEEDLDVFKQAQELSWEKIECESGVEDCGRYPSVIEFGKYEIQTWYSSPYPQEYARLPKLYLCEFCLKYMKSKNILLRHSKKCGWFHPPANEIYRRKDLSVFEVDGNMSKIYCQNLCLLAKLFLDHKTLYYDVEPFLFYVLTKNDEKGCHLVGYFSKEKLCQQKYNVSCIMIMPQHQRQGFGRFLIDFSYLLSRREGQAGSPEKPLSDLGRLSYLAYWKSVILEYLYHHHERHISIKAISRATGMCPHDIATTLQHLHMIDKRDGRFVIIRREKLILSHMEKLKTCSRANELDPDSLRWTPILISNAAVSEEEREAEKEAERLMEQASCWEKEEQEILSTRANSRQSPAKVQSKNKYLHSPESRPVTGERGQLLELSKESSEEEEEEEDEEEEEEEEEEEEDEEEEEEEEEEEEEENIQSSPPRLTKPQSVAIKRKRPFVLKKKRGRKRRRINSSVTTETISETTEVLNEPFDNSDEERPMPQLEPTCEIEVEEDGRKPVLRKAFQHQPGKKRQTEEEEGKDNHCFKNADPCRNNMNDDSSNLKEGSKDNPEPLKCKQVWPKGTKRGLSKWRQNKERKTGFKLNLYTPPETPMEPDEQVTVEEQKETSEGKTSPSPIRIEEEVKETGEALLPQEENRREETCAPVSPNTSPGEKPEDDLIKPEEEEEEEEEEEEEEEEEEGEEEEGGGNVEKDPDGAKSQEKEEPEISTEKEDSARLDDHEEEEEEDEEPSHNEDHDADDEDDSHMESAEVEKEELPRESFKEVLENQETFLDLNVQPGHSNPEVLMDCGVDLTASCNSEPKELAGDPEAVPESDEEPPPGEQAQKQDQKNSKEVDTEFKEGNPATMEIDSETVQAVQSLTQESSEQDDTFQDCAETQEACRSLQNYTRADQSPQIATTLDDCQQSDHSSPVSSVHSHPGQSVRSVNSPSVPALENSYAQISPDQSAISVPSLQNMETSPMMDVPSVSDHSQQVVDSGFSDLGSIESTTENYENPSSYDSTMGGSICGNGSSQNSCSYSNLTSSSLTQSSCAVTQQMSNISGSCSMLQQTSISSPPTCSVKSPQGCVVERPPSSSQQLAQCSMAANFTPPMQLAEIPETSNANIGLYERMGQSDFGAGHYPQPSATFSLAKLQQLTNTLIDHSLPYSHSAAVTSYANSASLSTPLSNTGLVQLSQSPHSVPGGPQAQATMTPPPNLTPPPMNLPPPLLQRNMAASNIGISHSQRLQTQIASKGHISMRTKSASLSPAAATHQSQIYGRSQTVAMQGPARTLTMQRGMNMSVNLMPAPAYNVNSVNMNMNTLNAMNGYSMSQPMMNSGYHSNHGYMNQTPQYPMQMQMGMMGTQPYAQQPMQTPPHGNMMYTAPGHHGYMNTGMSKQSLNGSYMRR

This experiment addresses T1, KAT6B (Homo sapiens, UniProt Q8WYB5).
T1 construct: purchased active motife (Active Motif) 81224
In words: Enzymatic activity assay for KAT6B acetyltransferase (TR-FRET, histone substrate H3). The following applies: KAT6B 3 nM, Bio-H3 400 nM, AcCOA 2 µM. Format: biochemical. As to the method:
The acetylation effects of KAT6B on histone substrate H3, as well as KAT5, KAT7, and KAT8 on histone substrate H4, were determined using the TR-FRET (time-resolved fluorescence resonance energy transfer) method. The determination was performed according to experimental procedures similar to those in "Pharmacological Experiment I": 1.2 Preparation of compounds: The compounds prepared in the examples were each dissolved in dimethylsulfoxide to give solutions at a concentration of 10 mmol/L. • 1) The compounds in the examples were each diluted from 10 mmol/L stock solution to 0.2 mmol/L, i.e., 1 µL of the compound was added to 49 µL of DMSO, and 3-fold dilution was performed to give 10 concentrations. • 2) 50 nL of the test compounds were transferred to 384 reaction plates using Echo, two replicates for each compound, and the plates were centrifuged at a rotation speed of 1000 rpm for 1 min, the final concentration of dimethylsulfoxide (DMSO) being 0.5%. […]
For KAT8: • 3) 2.5 µL of the KAT8 enzyme solution at a final concentration of 10 nM was added to the 384 reaction plates in step 2), and the plates were centrifuged at 1000 rpm for 1 min and incubated at 25 °C for 10 min. • 4) 2.5 µL of […] at a final concentration of 300 nM and an AcCOA (acetyl-CoA) reaction solution at a final concentration of 2 µM were added to the 384 reaction plates in step 3), and the plates were centrifuged at a rotation speed of 1000 rpm for 1 min and incubated at 25 °C for 90 min. • 5) 5 µL of Eu-Ab& Ulight-SA detection solution was separately added to the 384 reaction plates in step 4) of the 4 groups described above, and the plates were centrifuged at 1000 rpm for 1 min and incubated at 25 °C for 60 min. • 6) The HTRF […] signals were read using a BMG high-throughput drug-screening multi-mode microplate reader.
The acetylation levels of the histones in the groups were analyzed by the GraphPad Prism 8 software. […]
On the technique in general: TR-FRET usually uses a lanthanide donor and a delayed reading to cut background.
A word on the IC50: it is the concentration that gives 50% inhibition. Low values mean inhibition by little substance, high ones a need for much substance. `COc1cc2c(cc1S(=O)(=O)Nc1noc3cc(Cn4cccn4)nc(OC)c13)CCCC2` [Example 2, N-(6-((1H-Pyrazol-1-yl)methyl)-4-methoxyisoxazolo[4,5-c]pyridin-3-yl)-3-methoxy-5,6,7,8-tetrahydronaphthalene-2-sulfonamide] had a half-maximal inhibitory concentration (IC50) of 2.34 nM. To `COc1ccc2ccoc2c1S(=O)(=O)Nc1noc2cc(Cn3cccn3)nc(OC)c12` [Example 10, N-(6-((1H-Pyrazol-1-yl)methyl)-4-methoxyisoxazolo[4,5-c]pyridin-3-yl)-6-methoxybenzofuran-7-sulfonamide] belongs 1.78 nM; to `COc1cc2c(cc1S(=O)(=O)Nc1noc3cc(Cn4cccn4)nc(OC)c13)OCC2` [Example 59, N-(6-((1H-Pyrazol-1-yl)methyl)-4-methoxyisoxazolo[4,5-c]pyridin-3-yl)-5-methoxy-2,3-dihydrobenzofuran-6-sulfonamide], 9.5 nM.
